Data as given in ChEMBL document CHEMBL1201862, “PubChem BioAssay data set” (2004).
Calls of active or inactive are those of the source.

How the values were obtained:
cells [1] = type: functional, cell-based
Beta-galactosidase = Beta-galactosidase (Escherichia coli, UniProt Q8VNN2); assay: PubChem AID 485352; type: functional
[2] = target: T1, Heat shock factor protein 1 (Mus musculus, UniProt P38532); assay: inhibition of MG132-induced HSE-luciferase signal, confirmation, cell-based, NIH3T3, luminescence, dose retest (AID 2382); type: functional;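 further: NIH3T3 fibroblasts with HSF1-driven luciferase reporter stressed by proteasome inhibitor MG132; luminescence from HSF1-driven luciferase expression after 8 hours of MG132 stress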
T1 sequence (P38532 whole entry): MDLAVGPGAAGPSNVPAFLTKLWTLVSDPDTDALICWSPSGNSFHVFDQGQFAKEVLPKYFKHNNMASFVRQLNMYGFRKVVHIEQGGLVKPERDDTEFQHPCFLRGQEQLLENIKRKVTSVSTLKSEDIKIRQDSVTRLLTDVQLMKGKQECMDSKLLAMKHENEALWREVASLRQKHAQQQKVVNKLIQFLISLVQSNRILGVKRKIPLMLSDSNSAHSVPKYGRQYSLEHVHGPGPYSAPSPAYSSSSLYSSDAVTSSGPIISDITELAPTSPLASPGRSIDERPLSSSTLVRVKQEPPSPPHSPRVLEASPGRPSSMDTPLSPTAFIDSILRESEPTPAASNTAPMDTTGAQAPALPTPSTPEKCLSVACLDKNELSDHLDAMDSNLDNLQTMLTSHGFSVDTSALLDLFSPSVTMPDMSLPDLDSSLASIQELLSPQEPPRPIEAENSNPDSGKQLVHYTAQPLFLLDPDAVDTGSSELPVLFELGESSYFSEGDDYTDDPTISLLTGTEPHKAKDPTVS

[3] = target: T2, Type-1 angiotensin II receptor (Homo sapiens, UniProt P30556); assay: AT1 receptor antagonists, dose response, selectivity assay for APJ receptor antagonist project, cell-based, uHTS hits (AID 463214); type: functional;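 further: antagonist potency against angiotensin II stimulated AT1 response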
T2 sequence (P30556 whole entry): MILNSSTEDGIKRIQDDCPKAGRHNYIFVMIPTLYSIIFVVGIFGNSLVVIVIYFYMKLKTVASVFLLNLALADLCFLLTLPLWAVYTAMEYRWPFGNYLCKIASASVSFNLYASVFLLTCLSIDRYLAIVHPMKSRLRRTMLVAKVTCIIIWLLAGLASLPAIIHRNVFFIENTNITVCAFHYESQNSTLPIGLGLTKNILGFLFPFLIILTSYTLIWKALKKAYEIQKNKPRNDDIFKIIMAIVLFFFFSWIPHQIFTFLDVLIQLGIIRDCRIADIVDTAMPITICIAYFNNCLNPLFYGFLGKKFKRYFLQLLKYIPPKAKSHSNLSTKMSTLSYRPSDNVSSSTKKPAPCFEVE

cells [4] = type: functional, cell-based; remark: listed apart in the source
[5] = target: Neurotensin receptor type 1 (Homo sapiens, UniProt P30989); type: functional;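 further: Image-based confirmatory dose-response assay measuring agonist activity at NTR1; NTR1-expressing U2OS osteosarcoma cells imaged for beta-arrestin GFP spot formation; agonist potency where compounds increase beta-arrestin recruitment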
[6] = Shn3 3'UTR reporter inhibitors, dose response, cell-based, Clone20 osteoblasts, firefly luciferase, cherry-picked (AID 624132); type: functional;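 further: firefly luciferase luminescence from reporter carrying the Shn3 3'UTR in osteoblasts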
[7] = HepG2 cell cytotoxicity, dose response, cytotoxicity control for Shn3 inhibitor project, CellTiter-Glo, cherry-picked (AID 624134); type: functional, cell-based
[8] = control 3'UTR Renilla luciferase suppression, dose response, counter-screen for Shn3 inhibitor project, cell-based, Clone20-Shn3RL, cherry-picked (AID 624133); type: functional
Caspase-3 = target: T3, Caspase-3 (Homo sapiens, UniProt P42574); type: functional;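 further: Dose-response selectivity test against caspase-3 for candidate inhibitors of sentrin-specific proteases (SENPs)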
T3 sequence (P42574 whole entry): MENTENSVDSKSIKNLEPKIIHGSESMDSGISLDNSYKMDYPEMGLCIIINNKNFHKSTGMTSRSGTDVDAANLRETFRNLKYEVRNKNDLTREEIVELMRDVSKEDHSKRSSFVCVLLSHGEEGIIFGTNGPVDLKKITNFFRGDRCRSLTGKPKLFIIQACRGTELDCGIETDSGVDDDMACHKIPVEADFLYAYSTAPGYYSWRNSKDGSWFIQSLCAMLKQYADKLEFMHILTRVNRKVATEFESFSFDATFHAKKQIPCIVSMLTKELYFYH

[9] = target: T4, Sentrin-specific protease 7 (Homo sapiens, UniProt Q9BQF6); type: functional;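 further: Luminescence-based dose-response confirmation of ultra-high-throughput screening hits, measuring inhibition of SENP7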
T4 sequence (Q9BQF6 whole entry): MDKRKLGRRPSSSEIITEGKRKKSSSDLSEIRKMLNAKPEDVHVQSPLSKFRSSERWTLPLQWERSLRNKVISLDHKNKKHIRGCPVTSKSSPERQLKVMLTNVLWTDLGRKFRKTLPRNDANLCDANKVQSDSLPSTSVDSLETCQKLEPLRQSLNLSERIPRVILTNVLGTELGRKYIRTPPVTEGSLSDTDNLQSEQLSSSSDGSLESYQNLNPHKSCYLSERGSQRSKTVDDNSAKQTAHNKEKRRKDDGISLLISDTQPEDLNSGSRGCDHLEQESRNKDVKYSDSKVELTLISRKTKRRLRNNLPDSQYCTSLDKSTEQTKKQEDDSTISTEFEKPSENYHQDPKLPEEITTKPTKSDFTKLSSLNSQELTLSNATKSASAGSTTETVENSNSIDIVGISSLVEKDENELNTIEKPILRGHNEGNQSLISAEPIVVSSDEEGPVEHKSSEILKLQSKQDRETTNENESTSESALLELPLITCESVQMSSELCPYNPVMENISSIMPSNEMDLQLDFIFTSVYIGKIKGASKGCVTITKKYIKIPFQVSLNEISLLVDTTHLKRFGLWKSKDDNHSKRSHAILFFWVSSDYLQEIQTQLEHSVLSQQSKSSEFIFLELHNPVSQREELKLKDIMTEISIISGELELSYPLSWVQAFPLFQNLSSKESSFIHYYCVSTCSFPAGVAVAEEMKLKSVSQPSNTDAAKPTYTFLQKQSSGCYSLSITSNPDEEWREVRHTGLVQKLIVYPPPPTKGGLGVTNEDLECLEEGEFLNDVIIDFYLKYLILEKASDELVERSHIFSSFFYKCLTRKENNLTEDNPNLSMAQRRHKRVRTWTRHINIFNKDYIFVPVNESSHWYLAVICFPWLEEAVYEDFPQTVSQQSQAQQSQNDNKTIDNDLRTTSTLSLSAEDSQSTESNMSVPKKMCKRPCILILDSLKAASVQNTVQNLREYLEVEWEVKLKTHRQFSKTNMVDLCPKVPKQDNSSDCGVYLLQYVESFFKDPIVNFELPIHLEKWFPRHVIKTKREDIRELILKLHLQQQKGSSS

[10] = target: T5, Sentrin-specific protease 6 (Homo sapiens, UniProt Q9GZR1); type: functional;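 further: Luminescence-based dose-response confirmatory assay of SENP6 inhibition, following up an ultra-high-throughput screen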
T5 sequence (Q9GZR1 whole entry): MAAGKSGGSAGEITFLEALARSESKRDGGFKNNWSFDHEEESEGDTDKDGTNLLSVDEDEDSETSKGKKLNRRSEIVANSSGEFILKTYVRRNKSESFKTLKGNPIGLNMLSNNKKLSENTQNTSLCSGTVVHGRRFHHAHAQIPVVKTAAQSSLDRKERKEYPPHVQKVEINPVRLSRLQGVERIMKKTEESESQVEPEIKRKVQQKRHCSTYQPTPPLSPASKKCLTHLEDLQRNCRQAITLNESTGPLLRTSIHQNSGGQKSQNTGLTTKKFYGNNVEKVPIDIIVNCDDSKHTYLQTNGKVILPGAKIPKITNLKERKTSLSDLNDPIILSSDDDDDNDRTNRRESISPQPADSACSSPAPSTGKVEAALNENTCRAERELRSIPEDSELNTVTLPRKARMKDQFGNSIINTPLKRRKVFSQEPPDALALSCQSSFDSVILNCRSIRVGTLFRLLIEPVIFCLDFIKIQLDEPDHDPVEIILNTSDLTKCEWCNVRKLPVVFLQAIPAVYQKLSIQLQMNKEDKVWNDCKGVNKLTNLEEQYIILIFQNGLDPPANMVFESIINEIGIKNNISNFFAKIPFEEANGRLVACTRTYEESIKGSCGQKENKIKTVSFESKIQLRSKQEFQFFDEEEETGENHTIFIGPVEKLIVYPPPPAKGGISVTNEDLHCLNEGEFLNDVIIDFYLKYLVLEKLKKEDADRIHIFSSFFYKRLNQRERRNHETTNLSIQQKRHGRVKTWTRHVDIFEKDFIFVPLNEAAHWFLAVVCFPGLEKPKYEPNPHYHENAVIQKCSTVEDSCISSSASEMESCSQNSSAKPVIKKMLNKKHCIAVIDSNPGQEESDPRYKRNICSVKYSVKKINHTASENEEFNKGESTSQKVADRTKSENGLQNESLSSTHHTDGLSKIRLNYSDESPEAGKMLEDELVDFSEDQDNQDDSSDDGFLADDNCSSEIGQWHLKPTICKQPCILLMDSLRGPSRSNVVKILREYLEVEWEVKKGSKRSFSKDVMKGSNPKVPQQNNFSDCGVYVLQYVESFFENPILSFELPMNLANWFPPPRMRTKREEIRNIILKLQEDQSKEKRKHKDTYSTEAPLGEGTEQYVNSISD

[11] = target: Metabotropic glutamate receptor 4 (Homo sapiens, UniProt Q14833); assay: Modulation of the Metabotropic Glutamate Receptor mGluR4: Potency at human mGluR4. Modulation of intracellular Ca2+ using Fluo-4, AM, in CHO expressing recombinant receptor [Related pubchem assays (depositor defined):AID2437, AID2807]; type: functional, cell-based
[12] = target: T6, Sentrin-specific protease 8 (Homo sapiens, UniProt Q96LD8); type: functional;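 further: luminescence read-out of SENP8 inhibition, dose-response confirmation following an ultra-high-throughput screen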
T6 sequence (Q96LD8 whole entry): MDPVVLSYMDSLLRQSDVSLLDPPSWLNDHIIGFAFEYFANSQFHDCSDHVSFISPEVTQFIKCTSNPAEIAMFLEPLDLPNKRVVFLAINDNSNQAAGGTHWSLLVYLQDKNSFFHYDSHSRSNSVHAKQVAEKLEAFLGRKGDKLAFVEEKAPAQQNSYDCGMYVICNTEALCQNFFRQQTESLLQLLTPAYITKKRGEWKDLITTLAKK

[13] = target: Metabotropic glutamate receptor 4 (Rattus norvegicus, UniProt P31423); assay: Modulation of the Metabotropic Glutamate Receptor mGluR4: Rat PAM Potency. [Related pubchem assays (depositor defined):AID2437, AID2807]; type: functional
Protein skinhead-1 = target: T7, Protein skinhead-1 (Caenorhabditis elegans, UniProt P34707); type: functional
T7 sequence (P34707 whole entry): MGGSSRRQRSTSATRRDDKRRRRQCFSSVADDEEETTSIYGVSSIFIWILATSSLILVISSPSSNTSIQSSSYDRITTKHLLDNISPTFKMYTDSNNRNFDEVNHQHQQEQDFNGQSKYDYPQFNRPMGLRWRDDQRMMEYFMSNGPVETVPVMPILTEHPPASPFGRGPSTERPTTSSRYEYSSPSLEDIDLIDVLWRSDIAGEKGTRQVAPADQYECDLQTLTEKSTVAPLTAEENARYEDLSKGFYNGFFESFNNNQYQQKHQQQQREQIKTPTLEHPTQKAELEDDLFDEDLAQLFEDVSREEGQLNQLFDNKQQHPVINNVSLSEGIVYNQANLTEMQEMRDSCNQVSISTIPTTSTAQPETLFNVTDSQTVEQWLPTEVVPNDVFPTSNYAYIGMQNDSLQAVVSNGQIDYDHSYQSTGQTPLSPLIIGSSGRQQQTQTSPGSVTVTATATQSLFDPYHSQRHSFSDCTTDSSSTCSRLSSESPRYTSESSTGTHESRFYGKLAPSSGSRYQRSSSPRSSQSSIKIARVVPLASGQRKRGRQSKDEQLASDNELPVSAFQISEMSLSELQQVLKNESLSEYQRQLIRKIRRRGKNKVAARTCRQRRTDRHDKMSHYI

Neurotensin receptor type 1, sequence (P30989 whole entry): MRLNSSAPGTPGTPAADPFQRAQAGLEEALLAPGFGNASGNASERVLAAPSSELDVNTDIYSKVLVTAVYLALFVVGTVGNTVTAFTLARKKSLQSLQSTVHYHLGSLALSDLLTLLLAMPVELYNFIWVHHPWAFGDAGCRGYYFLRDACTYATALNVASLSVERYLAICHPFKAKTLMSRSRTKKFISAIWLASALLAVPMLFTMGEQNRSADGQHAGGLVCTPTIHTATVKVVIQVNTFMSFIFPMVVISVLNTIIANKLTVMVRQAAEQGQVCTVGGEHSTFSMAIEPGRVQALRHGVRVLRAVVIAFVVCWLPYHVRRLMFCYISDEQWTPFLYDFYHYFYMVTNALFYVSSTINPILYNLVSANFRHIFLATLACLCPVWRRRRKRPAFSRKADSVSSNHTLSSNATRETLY
Beta-galactosidase, sequence (Q8VNN2 whole entry): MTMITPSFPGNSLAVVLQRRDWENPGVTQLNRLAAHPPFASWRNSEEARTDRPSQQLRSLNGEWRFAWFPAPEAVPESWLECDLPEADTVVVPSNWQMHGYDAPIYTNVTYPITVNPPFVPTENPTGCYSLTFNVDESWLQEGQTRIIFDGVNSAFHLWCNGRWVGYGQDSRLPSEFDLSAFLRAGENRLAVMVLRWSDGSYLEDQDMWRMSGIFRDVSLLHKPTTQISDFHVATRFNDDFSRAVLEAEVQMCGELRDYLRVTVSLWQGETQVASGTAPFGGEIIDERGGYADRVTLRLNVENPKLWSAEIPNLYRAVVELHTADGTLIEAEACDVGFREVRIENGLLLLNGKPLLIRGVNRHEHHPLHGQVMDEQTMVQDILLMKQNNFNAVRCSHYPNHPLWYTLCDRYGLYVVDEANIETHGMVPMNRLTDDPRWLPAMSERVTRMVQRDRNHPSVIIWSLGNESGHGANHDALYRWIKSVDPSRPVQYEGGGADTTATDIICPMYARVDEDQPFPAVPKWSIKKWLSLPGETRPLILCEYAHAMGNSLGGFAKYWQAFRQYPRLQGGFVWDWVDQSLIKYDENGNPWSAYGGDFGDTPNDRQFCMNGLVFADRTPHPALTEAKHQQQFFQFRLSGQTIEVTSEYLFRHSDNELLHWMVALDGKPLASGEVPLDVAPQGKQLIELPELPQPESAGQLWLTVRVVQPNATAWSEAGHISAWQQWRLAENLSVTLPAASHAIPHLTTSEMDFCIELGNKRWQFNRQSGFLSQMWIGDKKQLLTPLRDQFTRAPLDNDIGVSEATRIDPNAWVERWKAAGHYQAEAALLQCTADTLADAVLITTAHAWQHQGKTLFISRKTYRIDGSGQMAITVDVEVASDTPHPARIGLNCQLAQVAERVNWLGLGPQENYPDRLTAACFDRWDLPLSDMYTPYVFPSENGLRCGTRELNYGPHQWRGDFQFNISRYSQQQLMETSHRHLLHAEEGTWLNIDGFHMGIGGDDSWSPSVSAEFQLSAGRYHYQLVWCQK
Metabotropic glutamate receptor 4 (Rattus norvegicus, UniProt P31423), sequence (P31423 whole entry): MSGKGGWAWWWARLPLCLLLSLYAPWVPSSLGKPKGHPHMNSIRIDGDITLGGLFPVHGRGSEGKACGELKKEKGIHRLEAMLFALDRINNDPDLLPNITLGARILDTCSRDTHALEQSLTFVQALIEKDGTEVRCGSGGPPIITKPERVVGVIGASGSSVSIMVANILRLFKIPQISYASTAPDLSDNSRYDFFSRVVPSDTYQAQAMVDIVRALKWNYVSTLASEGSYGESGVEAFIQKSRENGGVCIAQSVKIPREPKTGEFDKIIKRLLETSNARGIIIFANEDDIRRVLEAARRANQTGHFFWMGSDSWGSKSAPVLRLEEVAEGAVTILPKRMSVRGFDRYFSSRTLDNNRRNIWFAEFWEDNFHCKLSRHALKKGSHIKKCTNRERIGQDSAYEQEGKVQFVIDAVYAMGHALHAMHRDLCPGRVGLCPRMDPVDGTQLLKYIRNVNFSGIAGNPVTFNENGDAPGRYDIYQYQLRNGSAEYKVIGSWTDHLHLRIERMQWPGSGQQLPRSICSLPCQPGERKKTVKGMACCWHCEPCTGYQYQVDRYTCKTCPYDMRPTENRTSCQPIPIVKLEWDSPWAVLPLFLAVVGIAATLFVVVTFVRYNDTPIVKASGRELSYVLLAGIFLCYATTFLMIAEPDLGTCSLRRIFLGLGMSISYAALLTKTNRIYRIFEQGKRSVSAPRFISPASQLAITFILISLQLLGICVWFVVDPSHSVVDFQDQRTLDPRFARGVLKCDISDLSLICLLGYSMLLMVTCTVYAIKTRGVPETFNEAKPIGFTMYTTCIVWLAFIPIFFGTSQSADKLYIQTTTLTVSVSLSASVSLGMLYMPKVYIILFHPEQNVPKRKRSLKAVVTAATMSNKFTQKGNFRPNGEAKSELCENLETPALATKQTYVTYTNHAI
Metabotropic glutamate receptor 4 (Homo sapiens, UniProt Q14833), sequence (Q14833 whole entry): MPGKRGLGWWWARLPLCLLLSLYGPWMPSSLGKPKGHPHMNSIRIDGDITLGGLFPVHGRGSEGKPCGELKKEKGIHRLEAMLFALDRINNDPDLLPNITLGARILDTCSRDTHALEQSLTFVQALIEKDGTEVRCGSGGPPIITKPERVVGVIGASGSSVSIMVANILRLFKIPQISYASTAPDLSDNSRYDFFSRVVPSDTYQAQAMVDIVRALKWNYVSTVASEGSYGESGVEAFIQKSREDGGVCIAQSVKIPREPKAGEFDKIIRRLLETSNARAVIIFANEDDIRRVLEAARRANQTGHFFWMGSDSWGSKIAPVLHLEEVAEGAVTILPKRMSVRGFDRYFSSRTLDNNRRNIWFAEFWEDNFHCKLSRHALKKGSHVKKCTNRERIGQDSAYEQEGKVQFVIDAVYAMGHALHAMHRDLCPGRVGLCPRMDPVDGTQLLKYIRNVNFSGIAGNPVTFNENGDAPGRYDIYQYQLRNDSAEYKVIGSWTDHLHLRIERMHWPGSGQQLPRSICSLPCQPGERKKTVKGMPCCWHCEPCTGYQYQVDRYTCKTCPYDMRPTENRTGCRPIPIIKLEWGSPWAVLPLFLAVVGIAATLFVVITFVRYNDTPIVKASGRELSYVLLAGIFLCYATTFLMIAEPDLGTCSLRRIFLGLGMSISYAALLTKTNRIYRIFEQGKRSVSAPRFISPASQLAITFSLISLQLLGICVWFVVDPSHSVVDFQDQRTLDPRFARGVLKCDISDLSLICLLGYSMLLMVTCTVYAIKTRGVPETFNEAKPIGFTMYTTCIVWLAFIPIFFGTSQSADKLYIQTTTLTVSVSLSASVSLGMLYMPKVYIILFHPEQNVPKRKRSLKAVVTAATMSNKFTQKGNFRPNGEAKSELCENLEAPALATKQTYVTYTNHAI

SMILES	EC50 (cells [1])	EC50 (Beta-galactosidase)	EC50 [2]	IC50 [3]	EC50 (cells [4])	EC50 [5]	AC50 [6]	AC50 [7]	AC50 [8]	IC50 (Caspase-3)	IC50 [9]	IC50 [10]	EC50 [11]	IC50 [12]	EC50 [13]	IC50 (Protein skinhead-1)
CC(=O)OCCCNc1cc(Sc2ccc(C)cc2)c2nonc2c1[N+](=O)[O-]	> 350 µM (not active)	> 40 µM (inactive)	> 195 µM (not active)	1.56 µM (active)	> 350 µM (not active)	5.83 µM (active)	1.1 µM (active)	> 70 µM (inactive)	12.4 µM (active)							
O=C(Nc1ccc(Cl)c(Cl)c1)c1ccco1										17 µM (active)	5.24 µM (active)	18.3 µM (active)	4.54 µM (active)	21.7 µM (active)	3.58 µM (active)	24.4 µM (active)
